Measured values taken from publication PMC11013252, “Exploration of the Antibacterial and Anti-Inflammatory Activity of a Novel Antimicrobial Peptide Brevinin-1BW” (Molecules, 2024).
In brackets after ≈: the same amount, converted by molar mass. Like-named read-outs stand apart in the source and are kept apart here. Positions of bridges follow the written chain, without caps; N, C: chain ends. Residues, ends and D or L forms follow the SMILES beside them.

Columns and labels:
[1] = tested on: S. haemolyticus (CI 1607BLD590); assay: microbe, parasite or virus in culture; format: cell-based, Staphylococcus haemolyticus; details: CI 1607BLD590, 18 h
Procedure: (§1) The minimum inhibitory concentration (MIC) of the Brevinin-1BW was measured in 96-well microtiter plates according to the Clinical and Laboratory Standards Institute (CLSI). The activated strains were treated with Mueller Hinton Agar (MHA) solid medium. Single colonies were picked and expanded to the logarithmic growth phase, and the solution was diluted to 2 × 10^6 CFU/mL using the McFarland turbidity standard. The MIC was determined with the two-fold dilution method. Briefly, 50 μL of Mueller Hinton (MH) medium was added to a 96-well plate in advance. Then, 50 μL of AMP solution was added to the first well, and 50 μL was pipetted into the next well after mixing using a row gun, while 50 μL was discarded from the last well. Final concentrations of Brevinin-1BW were 100, 50, 25, 12.5, 6.25, and 3.125 μg/mL. A 50 μL volume of the diluted bacterial solution was added, and the final concentration of the bacterial solution was 1 × 10^6 CFU/mL. This was then placed into a 37 °C incubator for 18 h until the next day to observe the degree of turbidity of the 96-well plate and measure the absorbance of the wells at 600 nm with a multifunctional microplate reader (SpectraMax iD5, Molecular Devices, Sunnyvale, CA, USA). The absence of turbidity and the measured concentration of absorbance being less than the opposing group was taken as the MIC. The positive control used ampicillin at the same final concentration as Brevinin-1BW, the negative control used 50 μL of MH medium mixed with 50 μL of 2 × 10^6 CFU/mL bacterial solution, and the blank contained only 100 μL of MH medium. Three replicate wells were set up for each experiment, and each experiment was repeated three times. The MIC and all concentrations above the MIC of bacterial solution coated on MHA solid medium were placed into 37 °C incubator incubation for 18 h. The lowest concentration resulting in no colony growth was taken as the minimum bactericidal concentration (MBC).

E. coli (ATCC25922) = assay: microbe, parasite or virus in culture; format: cell-based; details: ATCC25922, 18 h
Procedure: as §1

HFF = format: cell-based, human; details: 24 h
[2] = tested on: C. koseri (CI 1611SED223); assay: microbe, parasite or virus in culture; format: cell-based, Citrobacter koseri; details: 18 h
Procedure: as §1

S. aureus mature biofilm = assay: Biofilm clearance, crystal violet; format: cell-based, Staphylococcus aureus; details: S. aureus 24 h biofilm
Procedure: Biofilm clearance of Brevinin-1BW was determined using a 96-well plate assay by first inoculating 100 µL of S. aureus bacterial suspension (5 × 10^5 CFU/mL) and incubating for 24 h at 37 °C. They were washed three times with sterile PBS. […] After 24 h of incubation, the cells were washed three times with sterile PBS. Methanol was added and fixed for 0.5 h and dried aseptically. A 1% crystal violet solution was added for 0.5 h and washed three times with sterilized deionized water. Absolute ethanol dissolved the biofilm. Absorbance was measured at 600 nm. Experiments were repeated four times independently.

[3] = tested on: S. aureus (ATCC 25923) biofilm formation; format: cell-based, Staphylococcus aureus; details: ATCC 25923, 24 h
Procedure: The plates were washed three times with sterile PBS and fixed with methanol for 0.5 h. After drying, the cells were stained with 1% crystal violet solution for 0.5 h. They were washed three times with deionized water and dissolved in 100 µL absolute ethanol. Absorbance was measured at 600 nm. Experiments were repeated four times independently.

IL-1β mRNA = assay: mRNA expression in LPS-treated RAW264.7 cells, real-time PCR; format: cell-based, mouse
Procedure: (§2) RAW 264.7 mouse macrophages were cultured in DMEM medium (Gibco, New York, NY, USA). containing 10% FBS (TransGen Biotech, Beijing, China) and 1% penicillin-streptomycin (Biosharp, Guangzhou, China) and were seeded into 6-well plates at a cell density of 10^5 cells/mL. After cell adhesion, 1 μg/mL LPS (Solarbio, Beijing, China) and different concentrations of Brevinin-1BW (0, 1, 2, 3, and 4 μg/mL) were incubated for 24 h. Culture supernatants were collected, and the contents of TNFα, IL-6, and IL-1β were determined with enzyme-linked immunosorbent assay (BOSTER, Wuhan, China). All cells were washed twice with precooled PBS, total cellular RNA was extracted using the RNAsimple Total RNA Extraction kit (TIANGEN, Beijing, China), and total RNA concentration and purity were determined using a Thermo Fisher NanoDropOne nucleic acid protein spectrophotometer. HiScript II 1st Strand cDNA Synthesis Kit (Vazyme, Nanjing, China) synthesized cDNA, and we performed real-time PCR using Hieff® qPCR SYBR Green Master Mix (No Rox) (YEASEN, Shanghai, China). The primer sequences for Beta-actin (β-Actin), interleukins (IL-6, IL-1β), tumor necrosis factor (TNF-α), and nitric oxide synthase (iNOS) are shown in Table 6. Cells incubated without peptide and/or LPS were used as negative control. All experiments were repeated three times.

iNOS mRNA = assay: as above; format: cell-based, mouse
Procedure: as §2

TNF-α mRNA = assay: as above; format: cell-based, mouse
Procedure: as §2

IL-6 mRNA = assay: as above; format: cell-based, mouse
Procedure: as §2

RAW264.7 = format: cell-based, mouse; details: 24 h
Procedure: Medium was prepared to contain 10% FBS (TransGen Biotech, China) and 1% penicillin-streptomycin (Biosharp, Guangzhou, China). A549, U-2OS, HePG2, HaCaT, HUVEC, and 293T cells were cultured in DMEM medium (Gibco, New York, NY, USA). A375, HCT116, Hela, and RAW264.7 cells were cultured in RPMI 1640 medium (Gibco, New York, NY, USA). The cytotoxicity of Brevinin-1BW was determined using the Cell Counting Kit-8 as follows: detached the cells from cell culture flasks with 0.25% trypsin, counted with a hemocytometer plate and then prepared into a cell suspension containing 5 × 10^3 cells/mL. Then, 90 μL of the cell suspension was inoculated into a 96-well plate and incubated at 37 °C in a 5% CO2-humidified atmosphere for 24 h. A 10 μL volume of the peptide was subsequently added to each well and co-incubated with the cells for 24 h. Then, 10 μL of CCK8 (Abbkine, Wuhan, China) was added to each well and incubated for a further 2 h. The absorbance of each well at 450 nm was measured using a multifunctional enzyme marker. […] Three replicate wells were set up for each experiment, and each experiment was repeated three times. The formula for calculating the cell viability is shown below.

CC[C@H](C)[C@@H]1NC(=O)[C@H](CCCCN)NC(=O)[C@@H](NC(=O)[C@H](Cc2ccccc2)NC(=O)[C@@H](NC(=O)[C@@H](NC(=O)[C@@H]2CCCN2C(=O)[C@H](CC(C)C)NC(=O)[C@H](Cc2ccccc2)NC(=O)[C@H](CO)NC(=O)[C@H](C)NC(=O)[C@H](C)NC(=O)[C@H](CC(C)C)NC(=O)CNC(=O)[C@H](C)NC(=O)[C@H](CC(C)C)NC(=O)[C@H](CC(C)C)NC(=O)[C@@H]2CCCN2C(=O)[C@H](CC(C)C)NC(=O)[C@@H](N)Cc2ccccc2)[C@@H](C)O)[C@@H](C)CC)CSSC[C@@H](C(=O)O)NC(=O)[C@H](CCCCN)NC(=O)[C@H](CCCNC(=N)N)NC(=O)[C@H](CO)NC1=O [Brevinin-1BW] (H-FLPLLAGLAASFLPTIFCKISRKC-OH; disulfide 18-24)
MBC [1]: 25 µg/mL (≈ 9.58 µM)
MIC [1]: 12.5 µg/mL (≈ 4.79 µM)
MBC (E. coli (ATCC25922)): >100 µg/mL
MIC (E. coli (ATCC25922)): 100 µg/mL (≈ 38.3 µM)
CC50 (HFF): 33.99 ± 0.48 µg/mL (≈ 13 µM)
MBC [2]: >100 µg/mL
MIC [2]: 50 µg/mL (≈ 19.2 µM)
clearance rate of the mature biofilm (S. aureus mature biofilm; 0.5 × MIC): 50.02%
clearance rate of the mature biofilm (S. aureus mature biofilm; 2 × MIC): 60.99%
inhibition of biofilm formation ([3]; 0.5): 35.76%
inhibition of biofilm formation [3]; 2: 83.67%
decrease of IL-1β mRNA expression level (IL-1β mRNA): 95.5%
decrease of iNOS mRNA expression level (iNOS mRNA): 81.37%
decrease of TNF-α mRNA expression level (TNF-α mRNA): 86.94%
decrease of IL-6 mRNA expression level (IL-6 mRNA): 93.72%
CC50 (RAW264.7): 32.33 ± 0.47 µg/mL (≈ 12.4 µM)
